Measured values as given in patent US9127164B2, “Fluorescent dyes and uses thereof” (ALMAC SCIENCES (SCOTLAND) LIMITED, priority 2005, dated 2015).
Like-named read-outs stand apart in the source and are kept apart here. Peptide text beside a SMILES is read from it. * marks the point of attachment. Propanoyl(3-(9AA-2-yl)) = Nc1c2ccccc2nc2ccc(CCC(=O)*)cc12

How the values were obtained:
[1] = Fluorescence lifetime by time-correlated single photon counting (Edinburgh Instruments FLS920); type: physicochemical; conditions: for Lifetime* (ns): Table 3, molecules synthesised; for Fluorescence Lifetime (nsecs) in PBS pH 7.4: excited at 405 nm, detection at 450 nm, 10 mM phosphate buffered saline pH 7.4; for Lifetime (ns): Table 2, 9-aminoacridine derivatives
Experimental: Fluorescence lifetimes were determined by time-correlated single photon counting using an Edinburgh Instruments FLS920 fluorimeter. Samples were excited at 405 nm with detection at 450 nm. Measurements were recorded in 10 mM phosphate buffered saline pH 7.4.
Excitation wavelength 405 nm and emission wavelength 450 nm.

[2] = Fluorescence emission spectra / intensity; type: physicochemical; conditions: for fluorescence emission intensity compared with N-methyl acridone: excitation at 405 nm, 140 mM NaCl, 10 mM phosphate buffer pH 7.4; for Relative intensity Ex405 nm, Emmax: relative to 9-aminoacridine = 1
Experimental: Fluorescence emission spectra of 10-methyl-9(10H)-thioacridone (N-methyl thioacridone) and 10-methyl-9(10H)-acridone (N-methylacridone) in 140 mM NaCl, 10 mM phosphate buffer pH 7.4 upon excitation at 405 nm, were obtained. The thioacridone concentration is 500 nM and the 10-methyl-9(10H)-acridone (N-methylacridone) concentration is 100 nM.
Fluorescence emission spectra of 9-aminoacridine and 10-methyl-9(10H)-acridone (N-methylacridone) upon excitation at 405 nm. Both compounds at a concentration of 100 nM in 140 mM NaCl, 10 mM phosphate buffer pH 7.4, were obtained.
Fluorescence emission spectrum of (Acridin-9-ylamino)acetic acid ethyl ester at 100 nM concentration in 140 mM NaCl, 10 mM phosphate buffer pH 7.4 upon excitation at 405 nm is shown in FIG. 4.

[3] = molecular target: T1, Caspase-3 recombinant enzyme (Homo sapiens, UniProt P42574); assay: Fluorescence lifetime based Caspase-3 cleavage assay of dye-labelled DEVDSW peptide; type: biochemical; conditions: 1 uM substrate
T1 construct: purchased Calbiochem
T1 sequence (P42574 29-175 limits assumed): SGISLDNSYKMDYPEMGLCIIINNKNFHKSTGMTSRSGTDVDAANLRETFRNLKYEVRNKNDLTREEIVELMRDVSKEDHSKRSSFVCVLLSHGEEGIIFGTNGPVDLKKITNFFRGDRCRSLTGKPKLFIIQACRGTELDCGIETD
T1 sequence (P42574 176-277 limits assumed): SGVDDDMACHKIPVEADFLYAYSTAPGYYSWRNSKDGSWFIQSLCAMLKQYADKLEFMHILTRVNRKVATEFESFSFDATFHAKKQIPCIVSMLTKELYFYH
Experimental: The 9-aminoacridine labelled peptide substrate, AA-DEVDSW (1 uM concentration in […] buffer pH 7.4 containing 10% sucrose, 0.1% CHAPS, 100 mM NaCl, 1 mM EDTA, 10 mM DTT) was employed in a biochemical assay using Caspase-3 recombinant enzyme (50 U and 20 U) at 30° C. The assay mixture was analysed at time intervals using an Edinburgh Instruments Fluorescence Lifetime Plate Reader. […] The data could also be easily viewed as a change in percentage cleavage over time, confirming that the reaction was progressing to completion after 90 minutes when 50 units of caspase 3 was employed (see FIGS. 8 and 9).
• Buffer: 20 mM HEPES buffer pH7.4 containing 10% sucrose, 0.1% CHAPS, 100 mM NaCl, 1 mM EDTA, 10 mM DTT • Substrate solution: 10 uM 3-(9-aminoacridin-2-yl) propionyl-DEVDSW in buffer. • Product solution: 10 uM 3-(9-aminoacridin-2-yl) propionyl-DEVDSK in buffer. • Enzyme solution: 10 U/ul in buffer. Procedure
To the well of a 96-well plate was added buffer (88 ul), substrate solution (10 ul, 1 uM final conc.) and enzyme (2 ul for 20 U). Reactions were performed in triplicate and also at varying enzyme concentrations. The reaction progress was followed at time intervals using an Edinburgh Instruments Fluorescence Lifetime Plate Reader against wells containing product and substrate standards.
The partially quenched 9-aminoacridine-labelled peptide substrate, 3-(9-aminoacridin-2-yl) propionyl-DEVDSW, was employed in a biochemical enzymatic cleavage assay using recombinant Caspase-3 enzyme purchased from Calbiochem. The assay was carried out using 1 uM substrate concentration in 20 mM HEPES buffer pH 7.4 containing 10% sucrose, 0.1% CHAPS, 100 mM NaCl, 1 mM EDTA, 10 mM DTT, in the presence of either 20 or 50 units of enzyme (100 ul final volume). The assay mixture was analysed at time intervals using an Edinburgh Instruments Fluorescence Lifetime Plate Reader. […] The deviation in fluorescence lifetime from that stated above was a consequence of the buffer system.

[4] = Fluorescence emission spectra / intensity; type: physicochemical
[5] = 20 mM HEPES buffer pH 7.4, 20 or 50 units of enzyme

## CC(C)(C)OC(=O)/C=C/c1ccc2nc3ccccc3c(N)c2c1 [3-(9-Amino-acridin-2-yl)-acrylic acid tert-butyl ester]
[1]
  Lifetime* (ns): 11.2 ns

## CC(C)[C@H](NC(=O)[C@H](CCC(=O)O)NC(=O)[C@H](CC(=O)O)NC(=O)CCc1ccc2nc3ccccc3c(N)c2c1)C(=O)N[C@@H](CC(=O)O)C(=O)N[C@@H](CO)C(=O)N[C@@H](CCCCN)C(=O)O [3-(9-Amino-acridin-2-yl)-propionyl-DEVDSK] ({Propanoyl(3-(9AA-2-yl))}-DEVDSK-OH)
[2]
  fluorescence properties (emission spectrum, intensity, lifetime) compared with 9-aminoacridine: comparable emission spectrum and fluorescence intensity to that of 9-aminoacridine
[1]
  fluorescence lifetime: 17.7 ns
  Lifetime* (ns): 17.7 ns

## CC(C)[C@H](NC(=O)[C@H](CCC(=O)O)NC(=O)[C@H](CC(=O)O)NC(=O)CCc1ccc2nc3ccccc3c(N)c2c1)C(=O)N[C@@H](CC(=O)O)C(=O)N[C@@H](CO)C(=O)N[C@@H](Cc1c[nH]c2ccccc12)C(=O)O [3-(9-Amino-acridin-2-yl)-propionyl-DEVDSW] ({Propanoyl(3-(9AA-2-yl))}-DEVDSW-OH)
[3]; [5]
  fluorescence lifetime of reaction mixture after cleavage: 15.5 ns
  fluorescence lifetime of reaction mixture at start of reaction: 8.5 ns
[3]; 50 units of caspase 3 enzyme, 20 mM HEPES buffer pH 7.4
  time at which cleavage reaction was progressing to completion: 60 min
[1]
  fluorescence lifetime: 7.6 ns
  Lifetime* (ns): 7.7 ns
[4]; tryptophan (W) containing labelled peptide versus lysine (K) containing labelled peptide
  fluorescence intensity quenched by tryptophan: 75%

## CC(C)(C)OC(=O)CCc1ccc2nc3ccccc3c(N)c2c1 [3-(9-amino-acridin-2-yl)-propionic acid tert-butyl ester]
[2]
  fluorescence properties (emission spectrum, intensity, lifetime) compared with 9-aminoacridine: comparable to the parent 9-aminoacridine
[1]
  Lifetime* (ns): 16.7 ns

## Nc1c2ccccc2nc2ccc(CCC(=O)O)cc12 [3-(9-amino-acridin-2-yl)-propionic acid]
[2]
  fluorescence properties (emission spectrum, intensity, lifetime) compared with 9-aminoacridine: comparable to the parent 9-aminoacridine
[1]
  Lifetime* (ns): 17.0 ns

## CCOC(=O)CNc1c2ccccc2nc2ccccc12 [(Acridin-9-ylamino)acetic acid ethyl ester]
[1]; Excitation wavelength 405 nm and emission wavelength 450 nm
  fluorescence lifetime: 14.9 ns

## Cn1c2ccccc2c(=O)c2ccccc21 [N-methyl acridone, 10-methyl-9(10H)-acridone, reference compound]
[1]
  Fluorescence Lifetime (nsecs) in PBS pH 7.4: 13.9 nsecs

## Cn1c2ccccc2c(=S)c2ccccc21 [N-methyl thioacridone, 10-methyl-9(10H)-thioacridone, reference compound]
[2]
  fluorescence emission intensity compared with N-methyl acridone: considerably less fluorescent

## Nc1c2ccccc2nc2ccccc12 [Number 1, 9-aminoacridine, reference compound]
[2]
  Relative intensity Ex405 nm, Emmax: 1
  fluorescence emission intensity compared with N-methyl acridone: considerably brighter
[1]
  Lifetime (ns): 15 ns
  Fluorescence Lifetime (nsecs) in PBS pH 7.4: 16.0 nsecs

## Nc1ccc2nc3ccccc3c(N)c2c1 [Number 6]
[2]
  Relative intensity Ex405 nm, Emmax: Not fluorescent
[1]
  Lifetime (ns): Not fluorescent
[4]; free amino dye, no acetylation
  fluorescence (in words): non-fluorescent

## CC(=O)Nc1ccc2nc3ccc(N)cc3c(N)c2c1 [Number 7]
[2]
  Relative intensity Ex405 nm, Emmax: Not fluorescent
[1]
  Lifetime (ns): multiexponential
